In US10150737B2, “Compounds for controlling arthropods” (priority 2013, dated 2018):

How the values were obtained:
Boophilus microplus = Boophilus microplus - injection test; format: in vivo; conditions: application rate 20 μg/animal, injection into engorged adult female ticks, after 7 days
Procedure, shortened: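 Active ingredient in DMSO, 1 μl injected into the abdomen of 5 engorged adult female ticks, then held in a climate-controlled room. Efficacy scored after 7 days from laying of fertile eggs, with non-fertile-looking eggs kept about 42 days for larval hatch; 100% means no fertile eggs.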

Tetranychus urticae = Tetranychus urticae - spray test, OP-resistant; format: in vivo; conditions: bean leaf discs, after 6 days
Procedure, shortened: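 Compound dissolved in acetone/DMF, diluted with water containing 1000 ppm alkylaryl polyglycol ether emulsifier to test concentrations. Bean leaf discs infested with all stages of spider mites were sprayed; % kill determined after 6 days (100% = all mites dead, 0% = none).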

Amblyomma hebraeum = assay: Amblyomma hebaraeum test (tick nymphs, immersion); format: in vivo; conditions: application rate 100 ppm; tick nymphs immersed one minute; after 42 days
Experimental: Solvent: dimethyl sulphoxide
To produce an appropriate active ingredient formulation, 10 mg of active ingredient are mixed with 0.5 ml of dimethyl sulphoxide, and the concentrate is diluted with water to the desired concentration.
Tick nymphs (Amblyomma hebraeum) are placed into perforated plastic beakers and immersed in the desired concentration for one minute. The ticks are transferred on filter paper into a Petri dish and stored in a climate-controlled cabinet.
After 42 days, the kill in % is determined. 100% means that all of the ticks have been killed; 0% means that none of the ticks have been killed.

Spodoptera frugiperda = Spodoptera frugiperda - spray test; format: in vivo; conditions: caterpillars on maize leaf discs, after 7 days
Procedure, shortened: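 Maize leaf discs sprayed with compound formulated in acetone/DMF and diluted in water containing 1000 ppm alkylaryl polyglycol ether emulsifier, then infested with armyworm caterpillars after drying. Efficacy scored after 7 days as % caterpillars killed (100% all, 0% none).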

[1] = logP determination by HPLC on a reversed-phase column (C18); format: physicochemical; conditions: for logP^a): HPLC-MS method a); for log P: HPLC-MS
Lucilia cuprina = Lucilia cuprina test; format: in vivo; conditions: application rate 100 ppm; L1 larvae; after 2 days
Procedure, shortened: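 About 20 L1 larvae placed on minced horsemeat treated with compound, formulated in DMSO and diluted with water to test concentration. Kill in % scored after 2 days (100% = all larvae dead, 0% = none).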

Myzus persicae = Myzus persicae - spray test; format: in vivo; conditions: Chinese cabbage leaf discs, after 6 days
Procedure, shortened: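 Chinese cabbage leaf discs carrying all stages of Myzus persicae sprayed with compound in acetone/DMF diluted in water with 1000 ppm emulsifier. Efficacy (% aphids killed) assessed after 6 days.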

Rhipicephalus sanguineus = Rhipicephalus sanguineus - in vitro contact tests with adult brown dog ticks; format: in vivo; conditions: application rate 5 μg/cm2; after 48 h; ticks dead or moribund
Procedure, shortened: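 Test tubes coated with active ingredient in acetone, 5 μg/cm^2 at 900 ppm. 5-10 adult ticks per tube, kept dark at room temperature for 48 h. Ticks then heated at 45-50° C ≤5 min; motionless or uncoordinated ticks scored dead/moribund, efficacy as % dead or moribund.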

Ctenocephalides felis [2] = assay: Ctenocephalides felis - in vitro contact tests with adult cat fleas; format: in vivo; conditions: application rate 5 μg/cm2 (=500 g/ha); after 48 h; fleas dead or moribund
Procedure, shortened: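 Tubes coated with compound in acetone (250 μl of 900 ppm solution gives 5 μg/cm^2 on 44.7 cm^2), solvent evaporated, then 5–10 adult fleas added and kept horizontal at room temperature and ambient humidity. After 48 h, dead or moribund (motionless/uncoordinated) fleas scored as % efficacy.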

[3] = tested on: Boophilus microplus Parkhurst strain, SP-resistant; assay: Boophilus microplus - dip test; format: in vivo; conditions: application rate 100 ppm; dip of engorged adult female ticks; after 7 days
Procedure, shortened: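 SP-resistant Parkhurst strain engorged adult female Boophilus microplus (8-10 per tube) dipped in DMSO-based compound dilutions in water, then kept in a climate-controlled room. Efficacy scored after 7 days from fertile egg laying, with larval hatch checked after about 42 days; 100% means no fertile eggs.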

Ctenocephalides felis [4] = assay: Ctenocephalides felis - oral test; format: in vivo; conditions: application rate 100 ppm in citrated cattle blood; after 2 days
Procedure, shortened: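 Compound in DMSO diluted into citrated cattle blood, fed through a parafilm membrane to about 20 unfed adult cat fleas. Kill in % scored after 2 days (100% = all dead).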

Phaedon cochleariae = Phaedon cochleariae - spray test; format: in vivo; conditions: larvae on Chinese cabbage leaf discs, after 7 days
Procedure, shortened: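 Chinese cabbage leaf discs sprayed with compound formulated in acetone/DMF and water containing 1000 ppm emulsifier; once dry, infested with mustard beetle larvae. Efficacy (% larvae killed) scored after 7 days.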

Musca domestica = Musca domestica test; format: in vivo; conditions: application rate 100 ppm; adult houseflies; after 2 days
Procedure, shortened: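 Compound in DMSO, diluted with water, applied to a sugar-solution sponge; vessels hold 10 adult houseflies. Percent mortality scored after 2 days.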

[5] = reversed-phase column (C18), Table I-T3

Row | SMILES | efficacy (laying of fertile eggs) (Boophilus microplus) [%] | efficacy (Tetranychus urticae; application rate 100 g/ha) [%] | efficacy (kill) (Amblyomma hebraeum) [%] | efficacy (Spodoptera frugiperda; application rate 100 g/ha) [%] | logP^a) [1] | logP^a) [1, 5] | efficacy (kill) (Lucilia cuprina) [%] | efficacy (Rhipicephalus sanguineus) [%] | efficacy (Ctenocephalides felis [2]) [%] | efficacy (laying of fertile eggs) [3] [%] | efficacy (kill) (Ctenocephalides felis [4]) [%] | efficacy (Phaedon cochleariae; application rate 100 g/ha) [%] | efficacy (kill) (Musca domestica) [%] | efficacy (Tetranychus urticae; application rate 500 g/ha) [%] | efficacy (Spodoptera frugiperda; application rate 500 g/ha) [%] | efficacy (Myzus persicae; application rate 500 g/ha) [%] | efficacy (Phaedon cochleariae; application rate 500 g/ha) [%] | also measured
1 | Cc1cc(C(F)(C(F)(F)F)C(F)(F)F)cc(C)c1-n1cc(-c2ccc(Cl)c(C(=O)NC3(C#N)CC3)c2)cn1 [I-T3-3] | 100 | 100 | 100 | 100 | 4.2 | 4.2 | 100 | 100 | 100 | 100 | 100 | 100 | 100 | – | – | – | – | efficacy (Myzus persicae; application rate 100 g/ha): 100%
2 | Cc1cc(C(F)(C(F)(F)F)C(F)(F)F)cc(C)c1-n1cc(-c2cnc(Cl)c(C(=O)NC3CC3)c2)cn1 [I-T3-20] | 100 | – | 100 | – | 3.8 | 3.8 | 100 | 100 | 100 | 100 | 100 | – | 100 | 100 | 100 | 100 | 100 | –
3 | Cc1cc(C(F)(C(F)(F)F)C(F)(F)F)cc(C)c1-n1cc(-c2cnc(Cl)c(C(=O)NC3(C#N)CC3)c2)cn1 [I-T3-21] | 100 | – | 100 | – | 3.7 | 3.7 | 100 | 100 | 100 | 100 | 100 | – | 100 | 100 | 100 | 90 | 100 | –
4 | O=C(NC1CC1)c1cc(-c2cnn(-c3c(Cl)cc(C(F)(C(F)(F)F)C(F)(F)F)cc3Cl)c2)cnc1Cl [I-T3-42] | 100 | – | 100 | – | 3.8 | 3.8 | 100 | 100 | 100 | 100 | 100 | – | 100 | 100 | 100 | 90 | 100 | –
5 | CCc1cc(C(F)(C(F)(F)F)C(F)(F)F)cc(C)c1-n1cc(-c2ccc(Cl)c(C(=O)NC3CC3)c2)cn1 [I-T3-44] | 100 | – | 100 | – | 4.7 | 4.7 | 100 | 100 | 100 | 100 | 100 | – | – | 100 | 100 | 100 | 100 | –
6 | N#CC1(NC(=O)c2cc(-c3cnn(-c4ccc(C(F)(C(F)(F)F)C(F)(F)F)cc4C(F)(F)F)c3)ccc2Cl)CC1 [I-T3-53] | 100 | 100 | 80 | 100 | 4.3 | 4.3 | 100 | 100 | – | 100 | 100 | 100 | 100 | – | – | – | – | efficacy (Myzus persicae; application rate 100 g/ha): 90%
7 | O=C(NC1CC1)c1cc(-c2cnn(-c3c(F)cc(C(F)(C(F)(F)F)C(F)(F)F)cc3F)c2)ccc1Cl [I-T3-61] | 100 | 100 | 80 | 100 | 4.0 | 4.0 | 100 | 100 | 100 | 100 | 100 | 100 | 100 | – | – | – | – | –
8 | Cc1cc(C(F)(C(F)(F)F)C(F)(F)F)cc(Cl)c1-n1cc(-c2ccc(Cl)c(C(=O)NC3CC3)c2)cn1 [I-T3-63] | 100 | 100 | 100 | 100 | 4.4 | 4.4 | 100 | 100 | 100 | 100 | 100 | 100 | 100 | – | – | – | – | –
9 | CCc1cc(C(F)(C(F)(F)F)C(F)(F)F)cc(Cl)c1-n1cc(-c2ccc(Cl)c(C(=O)NC3(C#N)CC3)c2)cn1 [I-T3-71] | 100 | 90 | 100 | 100 | 4.5 | 4.5 | 100 | 100 | 100 | 100 | 100 | 100 | 100 | – | – | – | – | –
10 | O=C(NC1CC1)c1cc(-c2cnn(-c3c(Br)cc(C(F)(C(F)(F)F)C(F)(F)F)cc3C(F)(F)F)c2)ccc1Cl [I-T3-148] | 100 | 90 | 100 | 100 | – | – | 100 | 100 | 100 | 100 | 100 | 100 | 100 | – | – | – | – | logP^a) ([1]; reversed-phase column (C18)): 4.5; log P [1, 5]: 4.5
11 | N#CC1(NC(=O)c2cc(-c3cnn(-c4c(Br)cc(C(F)(C(F)(F)F)C(F)(F)F)cc4C(F)(F)F)c3)ccc2Cl)CC1 [I-T3-155] | 100 | 100 | 100 | 100 | – | – | 100 | 100 | 100 | 100 | 100 | 100 | 100 | – | – | – | – | logP^a) ([1]; reversed-phase column (C18)): 4.4; log P [1, 5]: 4.4
12 | Cc1cc(C(F)(C(F)(F)F)C(F)(F)F)cc(C)c1-c1cnn(-c2cnc(Cl)c(C(=O)NC3CC3)c2)c1 [I-T4-3, 2-chloro-N-cyclopropyl-5-[4-[2,6-dimethyl-4-[1,2,2,2-tetrafluoro-1-(trifluoromethyl)ethyl]phenyl]pyrazol-1-yl]pyridine-3-carboxamide] | – | – | 100 | – | – | – | – | 100 | 100 | 100 | – | – | – | – | – | – | – | pest or weed control at 0.02 mg (Boophilus microplus; Rhipicephalus microplus, 168 h, read-out: efficacy (laying of fertile eggs)): 100%; logP ([1]; HPLC, C18 reversed phase, acetonitrile/water with formic acid, EEC Directive 79/831 Annex V.A8): 4.4; efficacy (Myzus persicae; application rate 100 g/ha): 90%
